One experiment concerns E. coli (ATCC25922). As to the kind of experiment: Broth microdilution assay, MIC. The class given is cell-based. Conditions: Escherichia coli, ATCC25922, read-out: Minimum Inhibitory Concentration. For orientation: Broth dilution looks for growth in wells or tubes with falling amounts of substance.
Experiment [1] relates to P. aeruginosa (ATCC 29853). As to the kind of experiment: Broth microdilution assay, MIC/MBC. To be noted: for bactericidal or bacteriostatic effect / fold more efficient than amoxicillin: P. aeruginosa; for bactericidal or bacteriostatic effect: MBC/MIC ≤ 4 = bactericidal; for MBC / MIC: Pseudomonas aeruginosa; for fold more efficient than amoxicillin: from MICs. Type of experiment: cell-based.

A further experiment deals with S. aureus (ATCC 25923). The experiment can be described thus: Broth microdilution assay, MIC. Type of experiment: cell-based. Conditions: Staphylococcus aureus, ATCC25923, read-out: Minimum Inhibitory Concentration.
The test system of another experiment is B. subtilis (ATCC 9372). As to the kind of experiment: Broth microdilution assay, MIC. Type of experiment: cell-based. To be noted: Bacillus subtilis, ATCC9372, read-out: Minimum Inhibitory Concentration.
In a further experiment the test system is C. albicans (ATCC 10231). The experiment can be described thus: Broth microdilution assay, antifungal MIC/MFC. Type of experiment: cell-based, Candida albicans. Conditions: for ratio (MFC/MIC): C. albicans (ATCC 10231); for MFC / MIC: Candida albicans.
The subject of experiment [2] is M. tuberculosis (RCMB 010126). The experiment can be described thus: Microplate alamar blue assay. Type of experiment: cell-based, Mycobacterium tuberculosis. Conditions: Mycobacterium tuberculosis, RCMB010126, sensitive Mycobacterium tuberculosis (RCMB 010126), MABA.
[3] abbreviates: ATCC29853, read-out: Minimum Inhibitory Concentration.
Where [4] appears, read: ATCC10231, read-out: Minimum Inhibitory Concentration.

≈ marks a conversion by molar mass, not a printed value. Like-named read-outs stand apart in the source and are kept apart here.

`O=C1CSC(N2N=C(c3cccs3)CC2c2cccs2)=N1` (stereo not drawn) [6a, 2-(4,5-Dihydro-3,5-di(thiophen-2-yl)pyrazol-1-yl)thiazol-4(5H)-one]: the MIC with E. coli (ATCC25922) turned out to be 125 µg/mL (≈ 375 µM); in experiment [1] (ATCC29853), 62.5 µg/mL (≈ 187 µM); in experiment [1] (setting [3]), 62.5 µg/mL (≈ 187 µM); with S. aureus (ATCC 25923), 250 µg/mL (≈ 750 µM); in the experiment on B. subtilis (ATCC 9372) it was 125 µg/mL (≈ 375 µM); against C. albicans (ATCC 10231) (ATCC10231), 62.5 µg/mL (≈ 187 µM). The MIC was determined as 62.5 µg/mL (≈ 187 µM) with C. albicans (ATCC 10231) (setting [4]) and 31.2 µg/mL (≈ 93.7 µM) in experiment [2]. For the same compound, the “ratio (MBC/MIC)” value in experiment [1] (P. aeruginosa (ATCC 29853)) is 4. The “bactericidal or bacteriostatic effect” value in experiment [1] was “bactericidal”. The minimum bactericidal concentration (MBC) (usually the lowest tested concentration that kills the bacteria rather than only halting them) in experiment [1] (ATCC29853) amounted to 250 µg/mL (≈ 750 µM). The “ratio (MFC/MIC)” value with C. albicans (ATCC 10231) stood at 4. In the experiment on C. albicans (ATCC 10231) (ATCC10231), the MFC (commonly the lowest tested concentration that kills the fungus rather than only halting it) amounted to 250 µg/mL (≈ 750 µM).

For `OC(Cn1cncn1)(Cn1cncn1)c1ccc(F)cc1F` [fluconazole, reference compound], the “ratio (MFC/MIC)” value with C. albicans (ATCC 10231) came out at 1. In the experiment on C. albicans (ATCC 10231) (ATCC10231), the MFC stood at 250 µg/mL (≈ 816 µM) and the MIC stood at 250 µg/mL (≈ 816 µM). For the same compound, in the experiment on C. albicans (ATCC 10231) (setting [4]), the MIC was found to be 250 µg/mL (≈ 816 µM).

For the compound `CCOC(=O)c1sc(N2N=C(c3cccs3)CC2c2cccs2)nc1C` (stereo not drawn) [5a, Ethyl 2-(4,5-dihydro-3,5-di(thiophen-2-yl)pyrazol-1-yl)-4-methylthiazole-5-carboxylate], the MIC in the experiment on E. coli (ATCC25922) is over 500 µg/mL; in experiment [1] (ATCC29853) it was over 500 µg/mL; in experiment [1] (setting [3]) it was over 500 µg/mL; in the experiment with S. aureus (ATCC 25923), 62.5 µg/mL (≈ 155 µM); in the experiment with B. subtilis (ATCC 9372), 3.9 µg/mL (≈ 9.66 µM); against C. albicans (ATCC 10231) (ATCC10231), 125 µg/mL (≈ 310 µM). For the same compound, the MIC with C. albicans (ATCC 10231) (setting [4]) stood at 125 µg/mL (≈ 310 µM); in experiment [2] it was 31.2 µg/mL (≈ 77.4 µM). The “ratio (MBC/MIC)” value in experiment [1] (P. aeruginosa (ATCC 29853)) is over 1. In experiment [1] (ATCC29853), this compound came in with a minimal bactericidal concentration (MBC) of over 500 µg/mL. For the same compound, the “ratio (MFC/MIC)” value in the experiment on C. albicans (ATCC 10231) was determined as 4. Also, the MFC against C. albicans (ATCC 10231) (ATCC10231) stood at 500 µg/mL (≈ 1240 µM).

`COc1ccc(C=C2SC(N3N=C(c4cccs4)CC3c3cccs3)=NC2=O)cc1` (stereo not drawn) [8a, 5-(4-Methoxybenzylidene)-2-(4,5-dihydro-3,5-di(thiophen-2-yl)pyrazol-1-yl)thiazol-4(5H)-one]: the MIC came out at 125 µg/mL (≈ 277 µM) in the experiment with E. coli (ATCC25922); 31.2 µg/mL (≈ 69.2 µM) in experiment [1] (ATCC29853); 31.2 µg/mL (≈ 69.2 µM) in experiment [1] (setting [3]); 250 µg/mL (≈ 554 µM) with S. aureus (ATCC 25923); 125 µg/mL (≈ 277 µM) in the experiment with B. subtilis (ATCC 9372); 62.5 µg/mL (≈ 138 µM) with C. albicans (ATCC 10231) (ATCC10231). The MIC was 62.5 µg/mL (≈ 138 µM) with C. albicans (ATCC 10231) (setting [4]) and 31.2 µg/mL (≈ 69.2 µM) in experiment [2]. Further, the “ratio (MBC/MIC)” value in experiment [1] (P. aeruginosa (ATCC 29853)) turned out to be 8. Also, the “fold more efficient than amoxicillin” value in experiment [1] is recorded as about 16 fold. The compound further had an MBC in experiment [1] (ATCC29853) of 250 µg/mL (≈ 554 µM). Also, the “ratio (MFC/MIC)” value with C. albicans (ATCC 10231) amounted to 2. Further, the MFC in the experiment with C. albicans (ATCC 10231) (ATCC10231) is 125 µg/mL (≈ 277 µM).

Turning to `COc1ccc(OC)c(C2CC(c3cccs3)=NN2c2nc(C)cs2)c1` (stereo not drawn) [3b, 4,5-Dihydro-5-(2,5-dimethoxyphenyl)-1-(4-methylthiazol-2-yl)-3-(thiophen-2-yl)-1H-pyrazole], the MIC in the experiment on E. coli (ATCC25922) was determined as 125 µg/mL (≈ 324 µM); in experiment [1] (ATCC29853) it was 15.6 µg/mL (≈ 40.5 µM); in experiment [1] (setting [3]) it was 15.6 µg/mL (≈ 40.5 µM); in the experiment on S. aureus (ATCC 25923), 250 µg/mL (≈ 648 µM); in the experiment with B. subtilis (ATCC 9372), 125 µg/mL (≈ 324 µM); in the experiment on C. albicans (ATCC 10231) (ATCC10231), 31.2 µg/mL (≈ 81.1 µM). For the same compound, the MIC in the experiment on C. albicans (ATCC 10231) (setting [4]) amounted to 31.2 µg/mL (≈ 81.1 µM); in experiment [2], 7.81 µg/mL (≈ 20.3 µM). The “ratio (MBC/MIC)” value in experiment [1] (P. aeruginosa (ATCC 29853)) is 8. Also, the “fold more efficient than amoxicillin” value in experiment [1] is reported as “approximately 32 fold”. Also, the minimal bactericidal concentration (MBC) in experiment [1] (ATCC29853) amounted to 125 µg/mL (≈ 324 µM). In addition, the “ratio (MFC/MIC)” value in the experiment on C. albicans (ATCC 10231) is given as 8. Besides, the “fungicidal or fungistatic behavior” value in the experiment on C. albicans (ATCC 10231) (C. albicans, MFC/MIC > 4 = fungistatic) is “fungistatic”. The compound further yielded a minimal fungicidal concentration (MFC) against C. albicans (ATCC 10231) (ATCC10231) of 250 µg/mL (≈ 648 µM).

Regarding `O=C1N=C(N2N=C(c3cccs3)CC2c2cccs2)SC1=C1C(=O)Nc2ccccc21` (stereo not drawn) [9a, 3-(2-(4,5-Dihydro-3,5-di(thiophen-2-yl)pyrazol-1-yl)-4-oxothiazol-5(4H)-ylidene)indolin-2-one], the MIC with E. coli (ATCC25922) stood at 125 µg/mL (≈ 270 µM); in experiment [1] (ATCC29853) it was 31.2 µg/mL (≈ 67.6 µM); in experiment [1] (setting [3]) it was 31.2 µg/mL (≈ 67.6 µM); in the experiment with S. aureus (ATCC 25923), 62.5 µg/mL (≈ 135 µM); in the experiment on B. subtilis (ATCC 9372), 125 µg/mL (≈ 270 µM); against C. albicans (ATCC 10231) (ATCC10231) it was 125 µg/mL (≈ 270 µM). In addition, the MIC with C. albicans (ATCC 10231) (setting [4]) was determined as 125 µg/mL (≈ 270 µM); in experiment [2] it was 15.6 µg/mL (≈ 33.7 µM). Besides, the “ratio (MBC/MIC)” value in experiment [1] (P. aeruginosa (ATCC 29853)) amounted to 2. For the same compound, the “fold more efficient than amoxicillin” value in experiment [1] is listed as about 16 fold. The “bactericidal or bacteriostatic effect” value in experiment [1] is “bactericidal”. In experiment [1] (ATCC29853), the MBC turned out to be 62.2 µg/mL (≈ 135 µM). Further, the “ratio (MFC/MIC)” value with C. albicans (ATCC 10231) is reported as 2. The compound further yielded a minimum fungicidal concentration (MFC) in the experiment on C. albicans (ATCC 10231) (ATCC10231) of 250 µg/mL (≈ 540 µM).

Consider `CC1(C)S[C@@H]2[C@H](NC(=O)[C@H](N)c3ccc(O)cc3)C(=O)N2[C@H]1C(=O)O` [amoxicillin, reference compound], for which the MIC with E. coli (ATCC25922) was 62.5 µg/mL (≈ 171 µM); in experiment [1] (ATCC29853), over 500 µg/mL; in experiment [1] (setting [3]) it was over 500 µg/mL; in the experiment with S. aureus (ATCC 25923), 7.8 µg/mL (≈ 21.3 µM); with B. subtilis (ATCC 9372), 31.2 µg/mL (≈ 85.5 µM). The “ratio (MBC/MIC)” value in experiment [1] (P. aeruginosa (ATCC 29853)) is given as over 1. The “Minimum Inhibitory Concentration” value in experiment [1] (P. aeruginosa (ATCC 29853), Gram-negative, Table 1) was over 500 µg/mL. This compound had an MBC in experiment [1] (ATCC29853) of over 500 µg/mL.

Values taken from article PMC10600881 (ACS Omega, 2023).
